Measured values as given in patent US12492188B2, “1H-benzo[D]imidazole derivatives as TLR9 inhibitors for the treatment of fibrosis” (BRISTOL-MYERS SQUIBB COMPANY, priority 2020, dated 2025).
Where two headings read alike, the source gives them in different places.

Legend:
Assay type in all cases: cell-based
[1] = target: T1, human TLR9 (Homo sapiens, UniProt Q9NR96); test: TLR9 inhibition reporter assay (HEK-Blue cells, secreted embryonic alkaline phosphatase reporter); details: HEK-Blue cells overexpressing human TLR9, stimulated with ODN2006 5 nM
T1 construct: host or cells: HEK-Blue cells (HEK293-derived reporter line)
T1 sequence (Q9NR96 26-1032): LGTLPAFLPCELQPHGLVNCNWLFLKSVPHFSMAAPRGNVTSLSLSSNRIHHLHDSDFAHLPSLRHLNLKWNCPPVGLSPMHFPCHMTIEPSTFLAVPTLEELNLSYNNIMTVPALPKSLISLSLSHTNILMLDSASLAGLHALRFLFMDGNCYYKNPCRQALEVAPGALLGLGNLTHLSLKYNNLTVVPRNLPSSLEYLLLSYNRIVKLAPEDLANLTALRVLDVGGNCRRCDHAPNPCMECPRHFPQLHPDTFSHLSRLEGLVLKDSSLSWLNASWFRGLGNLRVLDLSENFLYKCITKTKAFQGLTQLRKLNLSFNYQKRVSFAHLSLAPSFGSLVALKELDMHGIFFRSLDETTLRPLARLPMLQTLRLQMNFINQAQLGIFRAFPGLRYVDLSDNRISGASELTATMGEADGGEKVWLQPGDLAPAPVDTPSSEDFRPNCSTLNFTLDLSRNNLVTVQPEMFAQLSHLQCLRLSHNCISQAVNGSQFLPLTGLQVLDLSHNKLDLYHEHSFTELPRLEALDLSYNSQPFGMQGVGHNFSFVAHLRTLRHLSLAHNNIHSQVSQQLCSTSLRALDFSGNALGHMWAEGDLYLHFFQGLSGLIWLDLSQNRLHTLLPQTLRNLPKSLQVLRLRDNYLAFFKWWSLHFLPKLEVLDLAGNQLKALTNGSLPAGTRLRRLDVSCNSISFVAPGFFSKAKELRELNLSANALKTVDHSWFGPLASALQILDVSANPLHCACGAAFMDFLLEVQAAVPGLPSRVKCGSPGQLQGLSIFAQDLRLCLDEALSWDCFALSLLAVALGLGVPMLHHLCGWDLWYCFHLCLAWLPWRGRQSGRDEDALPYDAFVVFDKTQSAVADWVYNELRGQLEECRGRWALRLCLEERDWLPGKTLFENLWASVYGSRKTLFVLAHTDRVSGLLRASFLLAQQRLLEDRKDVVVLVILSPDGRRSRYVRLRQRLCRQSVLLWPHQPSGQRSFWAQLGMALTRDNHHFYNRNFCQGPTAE
Outline: (§1)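 Read-out is SEAP colour from HEK-Blue Detection medium after 22 h at 37 °C, converted to percent inhibition between agonist-plus-DMSO and reference-inhibitor wells. Receptor-overexpressing HEK-Blue cells received compound over 0.05 nM–50 μM for 30 min before agonist: gardiquimod 7.5 μM for TLR7, R848 15.9 μM for TLR8, ODN2006 5 nM for TLR9.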

[2] = target: T2, human TLR8 (Homo sapiens, UniProt Q9NR97); test: TLR8 inhibition reporter assay (HEK-Blue cells, secreted embryonic alkaline phosphatase reporter); details: HEK-Blue cells overexpressing human TLR8, stimulated with R848 15.9 μM; read-out: TLR 8 IC50
T2 construct: host or cells: HEK-Blue cells (HEK293-derived reporter line)
T2 sequence (Q9NR97 27-1041): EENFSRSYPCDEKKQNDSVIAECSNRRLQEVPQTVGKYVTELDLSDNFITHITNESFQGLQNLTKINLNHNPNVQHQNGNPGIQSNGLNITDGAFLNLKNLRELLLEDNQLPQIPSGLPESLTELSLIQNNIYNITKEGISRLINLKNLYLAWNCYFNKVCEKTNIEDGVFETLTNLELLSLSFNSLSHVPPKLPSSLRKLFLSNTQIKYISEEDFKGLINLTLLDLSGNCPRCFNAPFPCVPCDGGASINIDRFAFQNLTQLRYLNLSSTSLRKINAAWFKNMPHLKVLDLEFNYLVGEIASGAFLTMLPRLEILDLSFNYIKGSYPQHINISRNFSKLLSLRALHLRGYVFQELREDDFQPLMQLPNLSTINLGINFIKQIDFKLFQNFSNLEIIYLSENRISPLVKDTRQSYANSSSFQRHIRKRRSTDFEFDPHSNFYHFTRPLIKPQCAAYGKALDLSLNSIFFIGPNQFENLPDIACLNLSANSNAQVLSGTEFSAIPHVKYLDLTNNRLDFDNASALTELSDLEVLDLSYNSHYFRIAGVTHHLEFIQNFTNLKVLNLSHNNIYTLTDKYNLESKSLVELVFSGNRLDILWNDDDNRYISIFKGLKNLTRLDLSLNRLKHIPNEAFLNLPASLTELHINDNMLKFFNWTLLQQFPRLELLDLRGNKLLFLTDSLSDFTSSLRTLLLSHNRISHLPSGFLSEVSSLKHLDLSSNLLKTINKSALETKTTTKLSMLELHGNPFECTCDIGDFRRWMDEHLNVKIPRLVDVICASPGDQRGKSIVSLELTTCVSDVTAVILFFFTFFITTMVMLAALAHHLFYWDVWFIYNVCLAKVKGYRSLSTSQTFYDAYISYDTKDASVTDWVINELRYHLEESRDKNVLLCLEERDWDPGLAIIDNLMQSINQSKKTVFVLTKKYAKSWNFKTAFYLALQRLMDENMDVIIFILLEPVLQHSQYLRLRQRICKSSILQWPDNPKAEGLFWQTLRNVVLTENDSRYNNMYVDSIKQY
Outline: as §1

[3] = target: T3, human TLR7 (Homo sapiens, UniProt Q9NYK1); test: TLR7 inhibition reporter assay (HEK-Blue cells, secreted embryonic alkaline phosphatase reporter); details: HEK-Blue cells overexpressing human TLR7, stimulated with gardiquimod 7.5 μM; read-out: TLR 7 IC50
T3 construct: host or cells: HEK-Blue cells (HEK293-derived reporter line)
T3 sequence (Q9NYK1 27-1049): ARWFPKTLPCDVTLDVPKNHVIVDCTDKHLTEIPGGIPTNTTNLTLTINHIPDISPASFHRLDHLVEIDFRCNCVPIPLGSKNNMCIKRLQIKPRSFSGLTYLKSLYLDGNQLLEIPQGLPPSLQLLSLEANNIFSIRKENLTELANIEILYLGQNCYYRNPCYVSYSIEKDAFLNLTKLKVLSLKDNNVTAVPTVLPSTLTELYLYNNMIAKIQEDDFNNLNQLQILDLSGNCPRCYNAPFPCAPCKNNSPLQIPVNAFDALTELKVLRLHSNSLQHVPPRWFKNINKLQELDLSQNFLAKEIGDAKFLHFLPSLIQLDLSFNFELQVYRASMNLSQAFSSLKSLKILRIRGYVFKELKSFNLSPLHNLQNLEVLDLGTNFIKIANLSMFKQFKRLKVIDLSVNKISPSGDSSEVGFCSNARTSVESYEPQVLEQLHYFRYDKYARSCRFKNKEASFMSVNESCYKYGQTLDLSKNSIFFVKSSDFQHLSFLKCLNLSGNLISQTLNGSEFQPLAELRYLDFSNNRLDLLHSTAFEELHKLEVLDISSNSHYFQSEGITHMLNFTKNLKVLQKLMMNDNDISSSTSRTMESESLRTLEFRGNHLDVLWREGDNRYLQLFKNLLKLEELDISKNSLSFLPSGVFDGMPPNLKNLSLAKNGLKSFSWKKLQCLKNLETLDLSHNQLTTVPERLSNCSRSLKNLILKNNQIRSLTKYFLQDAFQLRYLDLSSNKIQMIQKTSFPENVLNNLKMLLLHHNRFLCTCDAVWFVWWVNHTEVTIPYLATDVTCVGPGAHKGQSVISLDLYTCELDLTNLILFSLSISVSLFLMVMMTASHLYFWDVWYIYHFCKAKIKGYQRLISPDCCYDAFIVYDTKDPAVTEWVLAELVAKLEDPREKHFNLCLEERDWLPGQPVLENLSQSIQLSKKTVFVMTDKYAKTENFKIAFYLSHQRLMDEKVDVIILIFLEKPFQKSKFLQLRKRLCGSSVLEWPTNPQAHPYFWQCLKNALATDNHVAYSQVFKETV
Outline: as §1

[4] = 22 hour incubation, reporter readout

IC50 [1, 4]	IC50 ([1]; read-out: TLR 9 IC50)	IC50 [2]	IC50 [3]	Structure (SMILES)
69 nM	69 nM	7200 nM	100 nM	Cc1cc(-c2ccc(CN3CC4(C3)CN(C(C)C)C4)c(F)c2)cc2c1nc(-c1ccc(S(C)(=O)=O)cc1)n2C [Example 404, 6-(3-fluoro-4-((6-isopropyl-2,6-diazaspiro[3.3]heptan-2-yl)methyl)phenyl)-1,4-dimethyl-2-(4-(methylsulfonyl)phenyl)-1H-benzo[d]imidazole]
21 nM	21 nM	900 nM	300 nM	Cc1cc(-c2cc(F)cc(CN3CCC(N4CCCC4)CC3)c2)cc2c1nc(-c1ccc(S(C)(=O)=O)cc1)n2C [Example 405, 6-(3-fluoro-5-((4-(pyrrolidin-1-yl)piperidin-1-yl)methyl)phenyl)-1,4-dimethyl-2-(4-(methylsulfonyl)phenyl)-1H-benzo[d]imidazole]
130 nM	133 nM	2000 nM	600 nM	Cc1cc(-c2cc(F)cc(CN3CCC(N4CCC4)CC3)c2)cc2c1nc(-c1ccc(S(C)(=O)=O)cc1)n2C [Example 406, 6-(3-((4-(azetidin-1-yl)piperidin-1-yl)methyl)-5-fluorophenyl)-1,4-dimethyl-2-(4-(methylsulfonyl)phenyl)-1H-benzo[d]imidazole]
46 nM	46 nM	5000 nM	800 nM	Cc1cc(-c2cccc(CN3CCC(N4CCCC4)CC3)c2)cc2c1nc(-c1ccc(S(C)(=O)=O)cc1)n2C1CC1 [Example 407, 1-cyclopropyl-4-methyl-2-(4-(methylsulfonyl)phenyl)-6-(3-((4-(pyrrolidin-1-yl)piperidin-1-yl)methyl)phenyl)-1H-benzo[d]imidazole]
140 nM	136 nM	900 nM	1600 nM	CS(=O)(=O)c1ccc(-c2nc3c(F)cc(-c4ccc(CN5CCC(N6CCCC6)CC5)cc4)cc3n2C2CC2)cc1 [Example 408, 1-cyclopropyl-4-fluoro-2-(4-(methylsulfonyl)phenyl)-6-(4-((4-(pyrrolidin-1-yl)piperidin-1-yl)methyl)phenyl)-1H-benzo[d]imidazole]
5.3 nM	5.3 nM	1000 nM	1500 nM	Cn1c(-c2ccc(S(C)(=O)=O)cc2)nc2c(F)cc(-c3ccc(CN4CCC(N5CCCC5)CC4)cc3)cc21 [Example 409, 4-fluoro-1-methyl-2-(4-(methylsulfonyl)phenyl)-6-(4-((4-(pyrrolidin-1-yl)piperidin-1-yl)methyl)phenyl)-1H-benzo[d]imidazole]
1900 nM	1880 nM	5400 nM	> 50000 nM	Cc1cc(-c2ccc(CN3CCN(C(C)C)CC3)cc2)cc2c1nc(-c1ccc(S(C)(=O)=O)cc1)n2C [Example 413, 6-(4-((4-isopropylpiperazin-1-yl)methyl)phenyl)-1,4-dimethyl-2-(4-(methylsulfonyl)phenyl)-1H-benzo[d]imidazole]
2100 nM	2140 nM	8400 nM	2300 nM	Cc1ccc(CN2CCC(c3cc(C)c4nc(-c5ccc(S(C)(=O)=O)cc5)n(C)c4c3)CC2)cn1 [Example 419, 1,4-dimethyl-6-(1-((6-methylpyridin-3-yl)methyl)piperidin-4-yl)-2-(4-(methylsulfonyl)phenyl)-1H-benzo[d]imidazole]

Structure (SMILES)	IC50 [1, 4]	IC50 ([1]; read-out: TLR 9 IC50)	IC50 [2]	IC50 [3]
CCOP(=O)(OCC)c1ccc(-c2nc3c(C)cc(C4CCN(C5CCN(C(C)C)CC5)CC4)cc3n2C)cc1 [Example 420, diethyl(4-(6-(1′-isopropyl-[1,4′-bipiperidin]-4-yl)-1,4-dimethyl-1H-benzo[d]imidazol-2-yl)phenyl)phosphonate]	140 nM	136 nM	42200 nM	> 50000 nM
CCOP(=O)(OCC)c1ccc(-c2nc3c(C)cc(C4CCN(C5CCN(CC(C)C)CC5)CC4)cc3n2C)cc1 [Example 421, diethyl(4-(6-(1′-isobutyl-[1,4′-bipiperidin]-4-yl)-1,4-dimethyl-1H-benzo[d]imidazol-2-yl)phenyl)phosphonate]	140 nM	139 nM	> 50000 nM	700 nM
CCOP(=O)(OCC)c1ccc(-c2nc3c(C)cc(C4CCN(C5CCN(C6CC6)CC5)CC4)cc3n2C)cc1 [Example 422, diethyl(4-(6-(1′-cyclopropyl-[1,4′-bipiperidin]-4-yl)-1,4-dimethyl-1H-benzo[d]imidazol-2-yl)phenyl)phosphonate]	180 nM	180 nM	27300 nM	4000 nM
